Reference: ChEMBL document CHEMBL1201862, “PubChem BioAssay data set” (2004)
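Test compounds were applied to cells in 96-well plates for 48 hours at 5 doses. The concentration for 50% growth inhibition is given as GI50.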 Activity calls are given as the source filed them. Cut-off read from the data, not from the text of the source: active = GI50 up to about 1.1 µM and inactive = higher.

Legend:
Assay in all cases: NCI anticancer screen, dose series, 48 h
HL-60 = system: HL-60
RPMI-8226 = system: RPMI-8226
HOP-18 = system: HOP-18
KM12 = system: KM12
NCI-H460 = system: NCI-H460
IGROV-1 = system: IGROV-1
U-251 = system: U-251
HOP-92 = system: HOP-92
SN12C = system: SN12C
SK-MEL-5 = system: SK-MEL-5
ACHN = system: ACHN
SK-OV-3 = system: SK-OV-3
RXF 393 = system: RXF 393
CAKI-1 = system: CAKI-1
SF-539 = system: SF-539
HCT-116 = system: HCT-116
Hs-578T = system: Hs-578T
NCI/ADR-RES = system: NCI/ADR-RES
T47D = system: T47D
BT-549 = system: BT-549

SMILES	GI50 (HL-60)	GI50 (RPMI-8226)	GI50 (HOP-18)	GI50 (KM12)	GI50 (NCI-H460)	GI50 (IGROV-1)	GI50 (U-251)	GI50 (HOP-92)	GI50 (SN12C)	GI50 (SK-MEL-5)	GI50 (ACHN)	GI50 (SK-OV-3)	GI50 (RXF 393)	GI50 (CAKI-1)	GI50 (SF-539)	GI50 (HCT-116)	GI50 (Hs-578T)	GI50 (NCI/ADR-RES)	GI50 (T47D)	GI50 (BT-549)
O=C(/C=C/c1ccccc1)Oc1cccc2cccnc12	3.01 µM (inactive)	4.38 µM (inactive)	25.8 µM (inactive)	8.39 µM (inactive)	3.62 µM (inactive)	11.2 µM (inactive)	4.71 µM (inactive)	17.5 µM (inactive)	3.97 µM (inactive)	7.74 µM (inactive)	20.3 µM (inactive)	41.1 µM (inactive)	21.1 µM (inactive)	32 µM (inactive)	3.93 µM (inactive)	3.33 µM (inactive)	–	–	–	–
CCN(CC)C(=S)SC1CCOP(=O)(N(CCCl)CCCl)N1C (stereo not drawn)	0.509 µM (active)	1.34 µM (inactive)	> 100 µM (inactive)	7.19 µM (inactive)	1.02 µM (active)	4.34 µM (inactive)	–	28.2 µM (inactive)	28.9 µM (inactive)	2.96 µM (inactive)	38.9 µM (inactive)	> 80.2 µM (inactive)	29.9 µM (inactive)	45.6 µM (inactive)	33.4 µM (inactive)	0.412 µM (active)	> 100 µM (inactive)	> 100 µM (inactive)	61.7 µM (inactive)	> 100 µM (inactive)
CC(Oc1ccc2c(-c3ccc(Cl)cc3)cc(=O)oc2c1)C(=O)O (stereo not drawn)	> 100 µM (inactive)	–	> 100 µM (inactive)	> 100 µM (inactive)	> 100 µM (inactive)	> 100 µM (inactive)	> 100 µM (inactive)	> 100 µM (inactive)	> 100 µM (inactive)	> 100 µM (inactive)	> 100 µM (inactive)	> 100 µM (inactive)	> 100 µM (inactive)	> 100 µM (inactive)	> 100 µM (inactive)	> 100 µM (inactive)	–	–	–	–
C#C[C@]1(O)CCC2C3CCc4cc(Oc5nc(F)nc(-n6c(C)nc7cc8ccccc8cc76)n5)ccc4C3CCC21C (stereo partly drawn)	31.1 µM (inactive)	38.2 µM (inactive)	30.6 µM (inactive)	32.7 µM (inactive)	25.4 µM (inactive)	54.3 µM (inactive)	36.2 µM (inactive)	16.3 µM (inactive)	37.5 µM (inactive)	35.6 µM (inactive)	61.4 µM (inactive)	62.1 µM (inactive)	48.9 µM (inactive)	–	31.6 µM (inactive)	32.8 µM (inactive)	–	–	–	–
CC(C)(C)N/N=C(\C(=O)Nc1cccc(Cl)c1)C1C(=O)Nc2ccccc2[S+]1[O-] (stereo not drawn)	> 100 µM (inactive)	–	> 100 µM (inactive)	> 100 µM (inactive)	> 100 µM (inactive)	> 100 µM (inactive)	–	74.8 µM (inactive)	> 100 µM (inactive)	> 100 µM (inactive)	> 100 µM (inactive)	> 100 µM (inactive)	> 100 µM (inactive)	> 100 µM (inactive)	> 100 µM (inactive)	> 10 µM (inactive)	–	–	–	–
O=c1/c(=C/c2ccccc2[N+](=O)[O-])sc2nnc(-c3cccnc3)n12	> 100 µM (inactive)	> 100 µM (inactive)	> 100 µM (inactive)	> 100 µM (inactive)	> 100 µM (inactive)	> 100 µM (inactive)	–	> 100 µM (inactive)	> 100 µM (inactive)	> 100 µM (inactive)	> 100 µM (inactive)	–	> 100 µM (inactive)	1.43 µM (inactive)	> 100 µM (inactive)	> 100 µM (inactive)	–	–	–	–
C/C=C(\N=C=S)C(=O)OC1C(COC(C)=O)OC([C@]2(O)CC(=O)C(N)=C(C(=O)O)C2=O)C(O)C1OC1CC(OC)C(O)([C@@H](C)OC(=O)[C@@H](C)CC)C(C)O1 (stereo partly drawn)	2.12 µM (inactive)	2.11 µM (inactive)	16.8 µM (inactive)	7.94 µM (inactive)	20.7 µM (inactive)	17.7 µM (inactive)	9.27 µM (inactive)	3.45 µM (inactive)	15 µM (inactive)	14.8 µM (inactive)	18.3 µM (inactive)	21.5 µM (inactive)	5.35 µM (inactive)	19.6 µM (inactive)	7.53 µM (inactive)	7.83 µM (inactive)	7.82 µM (inactive)	94.4 µM (inactive)	11.2 µM (inactive)	7.43 µM (inactive)
O=C(O)COc1ccc(C(=O)/C(SS/C(C(=O)c2ccc(OCC(=O)O)c(Cl)c2Cl)=C2\C=C(c3ccc(F)cc3)SS2)=C2/C=C(c3ccc(F)cc3)SS2)c(Cl)c1Cl	2.37 µM (inactive)	10.1 µM (inactive)	14.7 µM (inactive)	15.1 µM (inactive)	21.7 µM (inactive)	10.8 µM (inactive)	5.75 µM (inactive)	3.75 µM (inactive)	14.7 µM (inactive)	17.5 µM (inactive)	18.6 µM (inactive)	41.7 µM (inactive)	–	33.5 µM (inactive)	9.02 µM (inactive)	9.29 µM (inactive)	3.83 µM (inactive)	–	3.13 µM (inactive)	27.7 µM (inactive)
[O-][n+]1c(-c2ccccc2)oc2ccccc21	5.28 µM (inactive)	> 22.6 µM (inactive)	6.44 µM (inactive)	17.3 µM (inactive)	4.98 µM (inactive)	34.1 µM (inactive)	18.9 µM (inactive)	> 100 µM (inactive)	14.4 µM (inactive)	2.25 µM (inactive)	15 µM (inactive)	> 67.5 µM (inactive)	21.2 µM (inactive)	> 41.1 µM (inactive)	16.3 µM (inactive)	13.1 µM (inactive)	–	–	–	–
CC1=C(C(=O)Nc2ccccc2)C(c2ccccc2)C(C(=O)Nc2ccccc2)=C(C)N1	16.3 µM (inactive)	–	> 100 µM (inactive)	17.3 µM (inactive)	45.8 µM (inactive)	75.9 µM (inactive)	48.1 µM (inactive)	29.3 µM (inactive)	> 100 µM (inactive)	36.9 µM (inactive)	17.6 µM (inactive)	> 100 µM (inactive)	26.5 µM (inactive)	4.74 µM (inactive)	> 100 µM (inactive)	26.5 µM (inactive)	–	–	–	–
C=C(C)C(=O)/N=C(\N)NC#N	20 µM (inactive)	10.6 µM (inactive)	> 41.8 µM (inactive)	59 µM (inactive)	> 75 µM (inactive)	> 46.9 µM (inactive)	> 76.9 µM (inactive)	14.2 µM (inactive)	36.4 µM (inactive)	75.2 µM (inactive)	138 µM (inactive)	170 µM (inactive)	36.6 µM (inactive)	24.4 µM (inactive)	34.8 µM (inactive)	31.6 µM (inactive)	161 µM (inactive)	35.9 µM (inactive)	14.3 µM (inactive)	14.8 µM (inactive)
c1cnc2c(c1)-n1cccc1C1(CCOCC1)NN2	> 100 µM (inactive)	> 100 µM (inactive)	> 100 µM (inactive)	> 100 µM (inactive)	> 100 µM (inactive)	> 100 µM (inactive)	> 100 µM (inactive)	> 100 µM (inactive)	> 100 µM (inactive)	> 100 µM (inactive)	> 100 µM (inactive)	> 100 µM (inactive)	> 100 µM (inactive)	> 100 µM (inactive)	> 100 µM (inactive)	> 100 µM (inactive)	–	–	–	–
COC1/C=C\C=C(/C)C(=O)Nc2cc3nc4ccc(Br)cc4oc-3c(c2=O)CC(C)CC(OC)C(O)C(C)/C=C(\C)C1OC(N)=O (stereo not drawn)	0.0128 µM (active)	0.119 µM (active)	0.01 µM (active)	2.26 µM (inactive)	0.63 µM (active)	0.436 µM (active)	4.46 µM (inactive)	0.0134 µM (active)	0.0481 µM (active)	0.178 µM (active)	0.21 µM (active)	0.129 µM (active)	< 0.0112 µM (active)	0.292 µM (active)	0.44 µM (active)	0.0276 µM (active)	0.0628 µM (active)	–	0.00277 µM (active)	0.00429 µM (active)
CC(=O)Nc1ccccc1S(=O)(=O)c1ccccc1	> 100 µM (inactive)	> 100 µM (inactive)	> 100 µM (inactive)	> 100 µM (inactive)	> 100 µM (inactive)	> 100 µM (inactive)	> 100 µM (inactive)	43.9 µM (inactive)	> 100 µM (inactive)	> 100 µM (inactive)	> 100 µM (inactive)	> 100 µM (inactive)	> 100 µM (inactive)	> 100 µM (inactive)	> 100 µM (inactive)	> 100 µM (inactive)	–	–	–	–
CSC[S+]([O-])C[C@H](CO)NC(=O)/C=C/c1c(C)[nH]c(=O)[nH]c1=O (stereo partly drawn)	1.2 µM (inactive)	1.79 µM (inactive)	2.85 µM (inactive)	1.34 µM (inactive)	0.48 µM (active)	0.614 µM (active)	–	0.257 µM (active)	0.776 µM (active)	2.44 µM (inactive)	1.48 µM (inactive)	1.25 µM (inactive)	0.804 µM (active)	1.65 µM (inactive)	0.741 µM (active)	1.66 µM (inactive)	–	1.27 µM (inactive)	–	–
COC(=O)[C@@]12OC[C@]34[C@H]([C@@H](O)[C@@H]1O)[C@@]1(C)CC(=O)C(O)=C(C)[C@@H]1C[C@H]3OC(=O)[C@H](OC(=O)/C=C(\C)C(C)C)[C@@H]24 [BRUCEANTIN]	–	0.02 µM (active)	0.0265 µM (active)	0.02 µM (active)	0.02 µM (active)	0.02 µM (active)	0.0242 µM (active)	0.0328 µM (active)	0.0222 µM (active)	0.02 µM (active)	0.0026 µM (active)	0.02 µM (active)	0.0201 µM (active)	0.022 µM (active)	0.02 µM (active)	0.02 µM (active)	0.00553 µM (active)	0.337 µM (active)	0.0153 µM (active)	0.02 µM (active)
